{"source": "patent US8497307B2", "about": "“Aryl guanidine F1F0-ATPase inhibitors and related methods” (The Regents of the University of Michigan, priority 2008, dated 2013)", "data": [{"tested_on": "Ramos cells", "test": "Cytotoxicity in Ramos cells (cell death)", "assay_type": "cell-based", "protocol": "The compounds listed in Table 7 were tested for cytotoxicity in Ramos cells. The assay was conducted as described in K. M. Johnson et al. Chemistry & Biology 2005, 12, 485-496.", "units": {"EC50": "µM"}, "values": [{"smiles": "O=C(N=C(Nc1ccc2[nH]c(=O)[nH]c2c1)Nc1ccccc1C(F)(F)F)c1ccc(Br)cc1", "note": "[Compound I-1]", "EC50": "> 10"}, {"smiles": "O=C(N=C(Nc1ccc2[nH]c(=O)[nH]c2c1)Nc1ccccc1C(F)(F)F)c1ccc(Cl)cc1", "note": "[Compound I-2]", "EC50": "> 10"}, {"smiles": "O=C(N=C(Nc1ccc2[nH]c(=O)[nH]c2c1)Nc1ccccc1C(F)(F)F)c1cccc(Cl)c1", "note": "[Compound I-3]", "EC50": "> 10"}, {"smiles": "O=C(N=C(Nc1ccc2[nH]c(=O)[nH]c2c1)Nc1ccccc1C(F)(F)F)c1ccc(F)cc1", "note": "[Compound I-4]", "EC50": "< 10"}, {"smiles": "CC(C)(C)c1ccccc1NC(=NC(=O)c1ccc(Br)cc1)Nc1ccc2[nH]c(=O)[nH]c2c1", "note": "[Compound I-5]", "EC50": "< 10"}, {"smiles": "CC(C)(C)c1ccccc1NC(=NC(=O)c1ccc(Cl)cc1)Nc1ccc2[nH]c(=O)[nH]c2c1", "note": "[Compound I-6]", "EC50": "< 10"}, {"smiles": "CC(C)(C)c1ccccc1NC(=NC(=O)c1cccc(Cl)c1)Nc1ccc2[nH]c(=O)[nH]c2c1", "note": "[Compound I-7]", "EC50": "< 10"}, {"smiles": "CC(C)(C)c1ccccc1NC(=NC(=O)c1ccc(F)cc1)Nc1ccc2[nH]c(=O)[nH]c2c1", "note": "[Compound I-8]", "EC50": "< 10"}, {"smiles": "O=C(N=C(Nc1ccc2ccccc2c1)Nc1ccc2[nH]c(=O)[nH]c2c1)c1ccc(Br)cc1", "note": "[Compound I-9]", "EC50": "> 10"}, {"smiles": "O=C(N=C(Nc1ccc2ccccc2c1)Nc1ccc2[nH]c(=O)[nH]c2c1)c1ccc(Cl)cc1", "note": "[Compound I-10]", "EC50": "> 10"}, {"smiles": "O=C(N=C(Nc1ccc2ccccc2c1)Nc1ccc2[nH]c(=O)[nH]c2c1)c1ccc(F)cc1", "note": "[Compound I-12]", "EC50": "> 10"}, {"smiles": "O=C(N=C(Nc1ccc(-c2ccccc2)cc1)Nc1ccc2[nH]c(=O)[nH]c2c1)c1ccc(Br)cc1", "note": "[Compound I-13]", "EC50": "> 10"}, {"smiles": "O=C(N=C(Nc1ccc(-c2ccccc2)cc1)Nc1ccc2[nH]c(=O)[nH]c2c1)c1ccc(Cl)cc1", "note": "[Compound I-14]", "EC50": "> 10"}, {"smiles": "O=C(N=C(Nc1ccc(-c2ccccc2)cc1)Nc1ccc2[nH]c(=O)[nH]c2c1)c1cccc(Cl)c1", "note": "[Compound I-15]", "EC50": "> 10"}, {"smiles": "O=C(N=C(Nc1ccc(-c2ccccc2)cc1)Nc1ccc2[nH]c(=O)[nH]c2c1)c1ccc(F)cc1", "note": "[Compound I-16]", "EC50": "> 10"}, {"smiles": "O=C(N=C(Nc1ccc2[nH]c(=O)oc2c1)Nc1ccccc1C(F)(F)F)c1ccc(Br)cc1", "note": "[Compound I-17]", "EC50": "< 10"}, {"smiles": "O=C(N=C(Nc1ccc2[nH]c(=O)oc2c1)Nc1ccccc1C(F)(F)F)c1ccc(Cl)cc1", "note": "[Compound I-18]", "EC50": "< 10"}, {"smiles": "O=C(N=C(Nc1ccc2[nH]c(=O)oc2c1)Nc1ccccc1C(F)(F)F)c1cccc(Cl)c1", "note": "[Compound I-19]", "EC50": "< 10"}, {"smiles": "O=C(N=C(Nc1ccc2[nH]c(=O)oc2c1)Nc1ccccc1C(F)(F)F)c1ccc(F)cc1", "note": "[Compound I-20]", "EC50": "> 10"}, {"smiles": "CC(C)(C)c1ccccc1NC(=NC(=O)c1ccc(Br)cc1)Nc1ccc2[nH]c(=O)oc2c1", "note": "[Compound I-21]", "EC50": "< 10"}, {"smiles": "CC(C)(C)c1ccccc1NC(=NC(=O)c1ccc(Cl)cc1)Nc1ccc2[nH]c(=O)oc2c1", "note": "[Compound I-22]", "EC50": "< 10"}, {"smiles": "CC(C)(C)c1ccccc1NC(=NC(=O)c1cccc(Cl)c1)Nc1ccc2[nH]c(=O)oc2c1", "note": "[Compound I-23]", "EC50": "< 10"}, {"smiles": "CC(C)(C)c1ccccc1NC(=NC(=O)c1ccc(F)cc1)Nc1ccc2[nH]c(=O)oc2c1", "note": "[Compound I-24]", "EC50": "< 10"}, {"smiles": "O=C(N=C(Nc1ccc2ccccc2c1)Nc1ccc2[nH]c(=O)oc2c1)c1ccc(Br)cc1", "note": "[Compound I-25]", "EC50": "< 10"}, {"smiles": "O=C(N=C(Nc1ccc2ccccc2c1)Nc1ccc2[nH]c(=O)oc2c1)c1ccc(Cl)cc1", "note": "[Compound I-26]", "EC50": "< 10"}, {"smiles": "O=C(N=C(Nc1ccc2ccccc2c1)Nc1ccc2[nH]c(=O)oc2c1)c1cccc(Cl)c1", "note": "[Compound I-27]", "EC50": "< 10"}, {"smiles": "O=C(N=C(Nc1ccc2ccccc2c1)Nc1ccc2[nH]c(=O)oc2c1)c1ccc(F)cc1", "note": "[Compound I-28]", "EC50": "< 10"}, {"smiles": "O=C(N=C(Nc1ccc(-c2ccccc2)cc1)Nc1ccc2[nH]c(=O)oc2c1)c1ccc(Br)cc1", "note": "[Compound I-29]", "EC50": "< 10"}, {"smiles": "O=C(N=C(Nc1ccc(-c2ccccc2)cc1)Nc1ccc2[nH]c(=O)oc2c1)c1ccc(Cl)cc1", "note": "[Compound I-30]", "EC50": "< 10"}, {"smiles": "O=C(N=C(Nc1ccc(-c2ccccc2)cc1)Nc1ccc2[nH]c(=O)oc2c1)c1cccc(Cl)c1", "note": "[Compound I-31]", "EC50": "< 10"}, {"smiles": "O=C(N=C(Nc1ccc(-c2ccccc2)cc1)Nc1ccc2[nH]c(=O)oc2c1)c1ccc(F)cc1", "note": "[Compound I-32]", "EC50": "< 10"}, {"smiles": "O=C(N=C(Nc1cccc(C(F)(F)F)c1)Nc1ccc2[nH]c(=O)oc2c1)c1ccc(C(F)(F)F)cc1", "note": "[Compound I-85]", "EC50": "< 10"}, {"smiles": "CC(C)(C)c1ccccc1NC(=NC(=O)c1ccc(C(F)(F)F)cc1)Nc1ccc2[nH]c(=O)oc2c1", "note": "[Compound I-86]", "EC50": "< 10"}, {"smiles": "O=C(N=C(Nc1ccc(Cl)cc1)Nc1ccc2[nH]c(=O)oc2c1)c1ccc(C(F)(F)F)cc1", "note": "[Compound I-87]", "EC50": "< 10"}, {"smiles": "O=C(N=C(Nc1cccc(Cl)c1)Nc1ccc2[nH]c(=O)oc2c1)c1ccc(C(F)(F)F)cc1", "note": "[Compound I-88]", "EC50": "< 10"}, {"smiles": "O=C(N=C(Nc1cccc(C(F)(F)F)c1)Nc1ccc2[nH]c(=O)oc2c1)c1ccc(Cl)cc1", "note": "[Compound I-89]", "EC50": "< 10"}, {"smiles": "O=C(N=C(Nc1ccc(Cl)cc1)Nc1ccc2[nH]c(=O)oc2c1)c1ccc(Cl)cc1", "note": "[Compound I-90]", "EC50": "> 10"}, {"smiles": "O=C(N=C(Nc1cccc(Cl)c1)Nc1ccc2[nH]c(=O)oc2c1)c1ccc(Cl)cc1", "note": "[Compound I-91]", "EC50": "< 10"}, {"smiles": "O=C(N=C(Nc1ccc2[nH]c(=O)oc2c1)Nc1ccccc1C(F)(F)F)c1ccc(C(F)(F)F)cc1", "note": "[Compound I-92]", "EC50": "< 10"}, {"smiles": "O=C(N=C(Nc1ccc2[nH]c(=O)oc2c1)Nc1ccccc1Cl)c1ccc(C(F)(F)F)cc1", "note": "[Compound I-93]", "EC50": "< 10"}, {"smiles": "O=C(N=C(Nc1cc(F)cc(Cl)c1)Nc1ccc2[nH]c(=O)oc2c1)c1ccc(C(F)(F)F)cc1", "note": "[Compound I-94]", "EC50": "< 10"}, {"smiles": "CC(C)(C)c1ccccc1NC(=NC(=O)c1cccc(C(F)(F)F)c1)Nc1ccc2[nH]c(=O)oc2c1", "note": "[Compound I-95]", "EC50": "< 10"}, {"smiles": "CC(C)(C)c1ccccc1NC(=NC(=O)c1cccc(F)c1)Nc1ccc2[nH]c(=O)oc2c1", "note": "[Compound I-96]", "EC50": "< 10"}, {"smiles": "CC(C)(C)c1ccccc1NC(=NC(=O)c1ccc(F)c(F)c1)Nc1ccc2[nH]c(=O)oc2c1", "note": "[Compound I-98]", "EC50": "< 10"}, {"smiles": "O=C(N=C(Nc1ccc2[nH]c(=O)oc2c1)Nc1ccc(Cl)cc1F)c1cccc(C(F)(F)F)c1", "note": "[Compound I-99]", "EC50": "> 10"}, {"smiles": "CC(C)(C)c1ccccc1NC(=NC(=O)c1cccc(C#N)c1)Nc1ccc2[nH]c(=O)oc2c1", "note": "[Compound I-100]", "EC50": "< 10"}, {"smiles": "N#Cc1cccc(C(=O)N=C(Nc2ccc3[nH]c(=O)oc3c2)Nc2ccccc2C(F)(F)F)c1", "note": "[Compound I-101]", "EC50": "> 10"}, {"smiles": "N#Cc1cccc(C(=O)N=C(Nc2cccc(C(F)(F)F)c2)Nc2ccc3[nH]c(=O)oc3c2)c1", "note": "[Compound I-102]", "EC50": "< 10"}, {"smiles": "CC(C)(C)c1ccccc1NC(=NC(=O)c1ccc(C#N)cc1)Nc1ccc2[nH]c(=O)oc2c1", "note": "[Compound I-103]", "EC50": "< 10"}, {"smiles": "N#Cc1ccc(C(=O)N=C(Nc2ccc3[nH]c(=O)oc3c2)Nc2ccccc2C(F)(F)F)cc1", "note": "[Compound I-104]", "EC50": "< 10"}, {"smiles": "N#Cc1ccc(C(=O)N=C(Nc2cccc(C(F)(F)F)c2)Nc2ccc3[nH]c(=O)oc3c2)cc1", "note": "[Compound I-105]", "EC50": "> 10"}, {"smiles": "CC(C)(C)c1ccccc1NC(=NC(=O)c1ccc(C(F)(F)F)c(F)c1)Nc1ccc2[nH]c(=O)oc2c1", "note": "[Compound I-106]", "EC50": "< 10"}]}]}
